In PubChem BioAssay AID256 (DTP/NCI, 2004):
Inconclusive results and toxic doses are left out. The calls were made as follows: active = survival T/C of 150% or more; inactive = T/C below 125% in these data.

Test system: CD2F1 mice, L1210 leukemia ip, survival T/C
Test: NCI In Vivo Anticancer Drug Screen. Data for tumor model L1210 Leukemia (intraperitoneal) in CD2F1 (CDF1) mice
Settings: higher = longer survival
Outline: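 Transplantable tumor in mice; compound-treated vs vehicle-treated groups. Read-out = treated/control ratio of the measured endpoint.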

[1] = endpoint: mean survival time, dose: 25.0 mg/kg/injection, schedule: Q01DX005 (ip), vehicle: water
[2] = endpoint: mean survival time, dose: 50.0 mg/kg/injection, schedule: Q01DX005 (ip), vehicle: water
[3] = endpoint: mean survival time, dose: 100.0 mg/kg/injection, schedule: Q01DX005 (ip), vehicle: water
[4] = endpoint: mean survival time, dose: 200.0 mg/kg/injection, schedule: Q01DX005 (ip), vehicle: water
[5] = endpoint: mean survival time, dose: 100.0 mg/kg/injection, schedule: Q01DX009 (ip), vehicle: saline with Tween-80
[6] = endpoint: mean survival time, dose: 100.0 mg/kg/injection, schedule: Q04DX003 (ip), vehicle: saline with Tween-80
[7] = endpoint: mean survival time, dose: 200.0 mg/kg/injection, schedule: Q01DX009 (ip), vehicle: saline with Tween-80
[8] = endpoint: mean survival time, dose: 200.0 mg/kg/injection, schedule: Q04DX003 (ip), vehicle: saline with Tween-80
[9] = endpoint: mean survival time, dose: 400.0 mg/kg/injection, schedule: Q04DX003 (ip), vehicle: saline with Tween-80
[10] = endpoint: mean survival time, dose: 100.0 mg/kg/injection, schedule: Q01DX001 (ip), vehicle: saline with Tween-80
[11] = endpoint: mean survival time, dose: 100.0 mg/kg/injection, schedule: Q01DX009 (ip), vehicle: saline
[12] = endpoint: mean survival time, dose: 200.0 mg/kg/injection, schedule: Q01DX009 (ip), vehicle: saline
[13] = endpoint: mean survival time, dose: 50.0 mg/kg/injection, schedule: Q01DX009 (ip), vehicle: saline with Tween-80
[14] = endpoint: mean survival time, dose: 200.0 mg/kg/injection, schedule: Q01DX001 (ip), vehicle: saline with Tween-80
[15] = endpoint: mean survival time, dose: 50.0 mg/kg/injection, schedule: Q01DX009 (ip), vehicle: Klucel (hydroxypropylcellulose) (HPC)
[16] = endpoint: mean survival time, dose: 100.0 mg/kg/injection, schedule: Q01DX009 (ip), vehicle: Klucel (hydroxypropylcellulose) (HPC)

Measured: T/C

CC1OC(O)CC(NC(=O)C(F)(F)F)C1O (stereo not drawn)
inactive: [1] 98 % of control | [2] 95 % of control | [3] 98 % of control | [4] 107 % of control | endpoint: mean survival time, dose: 400.0 mg/kg/injection, schedule: Q01DX005 (ip), vehicle: water 98 % of control

c1ccc2c([Si](O[Si](c3cccc4ccccc34)C3CCCCC3)C3CCCCC3)cccc2c1
inactive: [5] 100 % of control | [6] 93 % of control | [7] 91 % of control | [8] 91 % of control | endpoint: mean survival time, dose: 400.0 mg/kg/injection, schedule: Q01DX009 (ip), vehicle: saline with Tween-80 88 % of control

CSc1n[nH]c(N)n1
inactive: [6] 94 % of control | [8] 94 % of control | [9] 90 % of control

CC(C)=CCOC1=CC(=O)C(=O)c2ccccc21
inactive: [10] 103 % of control

[Cl][Pt][Cl].[NH-]C(CCC(N)=O)C(=O)O (stereo not drawn)
inactive: endpoint: median survival time, dose: 12.5 mg/kg/injection, schedule: Q04DX003 (ip), vehicle: water 100 % of control | endpoint: median survival time, dose: 25.0 mg/kg/injection, schedule: Q04DX003 (ip), vehicle: water 101 % of control | endpoint: median survival time, dose: 50.0 mg/kg/injection, schedule: Q04DX003 (ip), vehicle: water 108 % of control | endpoint: median survival time, dose: 100.0 mg/kg/injection, schedule: Q04DX003 (ip), vehicle: water 107 % of control | endpoint: median survival time, dose: 200.0 mg/kg/injection, schedule: Q04DX003 (ip), vehicle: water 111 % of control

CC(C)(Br)C(=O)c1ccco1
inactive: endpoint: mean survival time, dose: 100.0 mg/kg/injection, schedule: Q04DX003 (ip), vehicle: saline sonified 101 % of control | endpoint: mean survival time, dose: 200.0 mg/kg/injection, schedule: Q04DX003 (ip), vehicle: saline sonified 102 % of control | endpoint: mean survival time, dose: 400.0 mg/kg/injection, schedule: Q04DX003 (ip), vehicle: saline sonified 95 % of control

NCCCN1CCOCC1
inactive: endpoint: mean survival time, dose: 100.0 mg/kg/injection, schedule: Q01DX001 (ip), vehicle: saline 98 % of control | endpoint: mean survival time, dose: 200.0 mg/kg/injection, schedule: Q01DX001 (ip), vehicle: saline 101 % of control | endpoint: mean survival time, dose: 400.0 mg/kg/injection, schedule: Q01DX001 (ip), vehicle: saline 95 % of control

N=C1CCCS1
inactive: endpoint: median survival time, dose: 25.0 mg/kg/injection, schedule: Q01DX009 (ip), vehicle: saline 112 % of control | endpoint: median survival time, dose: 50.0 mg/kg/injection, schedule: Q01DX009 (ip), vehicle: saline 116 % of control | endpoint: median survival time, dose: 100.0 mg/kg/injection, schedule: Q01DX009 (ip), vehicle: saline 122 % of control

CNCC(O)c1ccc(O)cc1 (stereo not drawn)
inactive: [11] 94 % of control | [12] 91 % of control

NS(=O)(=O)c1ccc(NC2OCC(O)C(O)C2O)cc1 (stereo not drawn)
inactive: [11] 103 % of control | [6] 93 % of control | [12] 104 % of control | [8] 98 % of control | endpoint: mean survival time, dose: 400.0 mg/kg/injection, schedule: Q01DX009 (ip), vehicle: saline 103 % of control | [9] 101 % of control

O=Cc1c(O)c2ccccc2[nH]c1=O
inactive: endpoint: mean survival time, dose: 6.25 mg/kg/injection, schedule: Q01DX009 (ip), vehicle: saline with Tween-80 101 % of control | endpoint: mean survival time, dose: 12.5 mg/kg/injection, schedule: Q01DX009 (ip), vehicle: saline with Tween-80 103 % of control | endpoint: mean survival time, dose: 25.0 mg/kg/injection, schedule: Q01DX009 (ip), vehicle: saline with Tween-80 103 % of control | [13] 112 % of control | [5] 106 % of control | endpoint: median survival time, dose: 12.0 mg/kg/injection, schedule: Q01DX009 (ip), vehicle: Klucel (hydroxypropylcellulose) (HPC) 98 % of control | endpoint: median survival time, dose: 25.0 mg/kg/injection, schedule: Q01DX009 (ip), vehicle: Klucel (hydroxypropylcellulose) (HPC) 105 % of control | endpoint: median survival time, dose: 50.0 mg/kg/injection, schedule: Q01DX009 (ip), vehicle: Klucel (hydroxypropylcellulose) (HPC) 113 % of control | endpoint: median survival time, dose: 100.0 mg/kg/injection, schedule: Q01DX009 (ip), vehicle: Klucel (hydroxypropylcellulose) (HPC) 104 % of control

CCCCCOC(=O)CC(N)C(=O)OCCCCC (stereo not drawn)
inactive: [13] 96 % of control | [5] 100 % of control | [6] 93 % of control | [7] 91 % of control | [8] 93 % of control

NC1=NC(CCc2ccccc2)N(c2ccc3ccccc3c2)C(N)=N1 (stereo not drawn)
inactive: endpoint: mean survival time, dose: 4.7 mg/kg/injection, schedule: Q04DX003 (ip), vehicle: saline 104 % of control | endpoint: mean survival time, dose: 9.4 mg/kg/injection, schedule: Q04DX003 (ip), vehicle: saline 100 % of control | endpoint: mean survival time, dose: 18.8 mg/kg/injection, schedule: Q04DX003 (ip), vehicle: saline 100 % of control

c1ccc2[s+]cccc2c1
inactive: [6] 95 % of control

O=NNc1cccnc1
inactive: endpoint: median survival time, dose: 6.25 mg/kg/injection, schedule: Q01DX009 (ip), vehicle: water 96 % of control | endpoint: median survival time, dose: 12.5 mg/kg/injection, schedule: Q01DX009 (ip), vehicle: water 99 % of control | endpoint: median survival time, dose: 25.0 mg/kg/injection, schedule: Q01DX009 (ip), vehicle: water 99 % of control

FC(F)(F)/C([S-])=C(/[S-])C(F)(F)F.N#[O+].[Mn].[c-]1[c-][c-][cH-][c-]1
inactive: endpoint: mean survival time, dose: 75.0 mg/kg/injection, schedule: Q01DX001 (ip), vehicle: other 103 % of control

c1ccc(NC2=NCCO2)nc1
inactive: [10] 101 % of control | [14] 100 % of control

Cc1ncc(CO)n1C
inactive: [15] 94 % of control | [16] 105 % of control | endpoint: mean survival time, dose: 200.0 mg/kg/injection, schedule: Q01DX009 (ip), vehicle: Klucel (hydroxypropylcellulose) (HPC) 105 % of control

Cc1cc(NC(=O)Nc2ccccc2C)no1
inactive: [10] 106 % of control | [14] 100 % of control | endpoint: mean survival time, dose: 400.0 mg/kg/injection, schedule: Q01DX001 (ip), vehicle: saline with Tween-80 103 % of control

CC(CP(=O)(c1ccccc1)c1ccccc1)C(O)(C(=O)c1ccccc1)c1ccccc1 (stereo not drawn)
inactive: [5] 95 % of control | [6] 97 % of control | [7] 97 % of control | [8] 94 % of control | [9] 102 % of control

ICC12CCC1(CI)COC2 (stereo not drawn)
inactive: endpoint: mean survival time, dose: 100.0 mg/kg/injection, schedule: Q04DX003 (ip), vehicle: saline 96 % of control | endpoint: mean survival time, dose: 200.0 mg/kg/injection, schedule: Q04DX003 (ip), vehicle: saline 96 % of control | endpoint: mean survival time, dose: 400.0 mg/kg/injection, schedule: Q04DX003 (ip), vehicle: saline 93 % of control

Nc1ccn(C2OC3COC2C3O)c(=O)n1 (stereo not drawn)
inactive: endpoint: mean survival time, dose: 12.5 mg/kg/injection, schedule: Q01DX005 (ip), vehicle: water 101 % of control | [1] 101 % of control | [2] 102 % of control | [3] 101 % of control | [4] 107 % of control

[Br][Pt+2][Br].[NH-]CC(=O)O.[NH-]CC(=O)O
inactive: endpoint: mean survival time, dose: 25.0 mg/kg/injection, schedule: Q01DX009 (ip), vehicle: Klucel (hydroxypropylcellulose) (HPC) 101 % of control | [15] 90 % of control | endpoint: mean survival time, dose: 50.0 mg/kg/injection, schedule: Q04DX003 (ip), vehicle: Klucel (hydroxypropylcellulose) (HPC) 96 % of control | [16] 86 % of control | endpoint: mean survival time, dose: 100.0 mg/kg/injection, schedule: Q04DX003 (ip), vehicle: Klucel (hydroxypropylcellulose) (HPC) 102 % of control | endpoint: mean survival time, dose: 200.0 mg/kg/injection, schedule: Q04DX003 (ip), vehicle: Klucel (hydroxypropylcellulose) (HPC) 95 % of control

CCOC(c1ccccc1)(c1ccccc1)c1ccccc1
inactive: endpoint: mean survival time, dose: 100.0 mg/kg/injection, schedule: Q01DX009 (ip), vehicle: other 98 % of control | endpoint: mean survival time, dose: 200.0 mg/kg/injection, schedule: Q01DX009 (ip), vehicle: other 102 % of control | endpoint: mean survival time, dose: 400.0 mg/kg/injection, schedule: Q01DX009 (ip), vehicle: other 96 % of control
